Data on two compounds can be found in patent US20210196714A1, “COMPOSITIONS AND METHODS FOR TREATING DISORDERS CHARACTERIZED WITH ABERRANT RAS/MAPK SIGNALING” (Duke University, priority 2018, published 2021).

Experiment [1] has as its system zebrafish kmt2d morphants. The experiment in a line: Rescue of convergent-extension (CE) phenotype in kmt2d morphants. It is filed as in vivo.
For the next experiment, the system named is morphant KS embryos. Conditions: Bogershausen et al. 2015; cited from earlier work.

Consider `CC(C)(C)c1nc(-c2cccc(NS(=O)(=O)c3c(F)cccc3F)c2F)c(-c2ccnc(N)n2)s1` [Dabrafenib, reference compound], for which the “amelioration of CE defects over serial dilutions” value in experiment [1] (1 nM to 1 μM, 8-10 somite stage) is listed as “did not result in significant amelioration”. Besides, the “CE defects at 50 nM and 100 nM doses” value in experiment [1] (dose response, 50 and 100 nM) is “marginal improvements”.

Take `O=C(NOCC1CC1)c1cc(Br)c(F)c(F)c1Nc1ccc(I)cc1Cl` [PD184161]: the “rescue of CE-driven phenotypes” value in the experiment on morphant KS embryos is listed as “phenocopy this rescue”.
